A short description of the series: Penetration study, Bronaugh flow-through diffusion cell system (permeability coefficient Kp). The following applies: 0.5 percent ketoprofen in the presence of vitamin E.

In the case of `CC(C(=O)O)c1cccc(C(=O)c2ccccc2)c1` (stereo not shown) [ketoprofen], the penetration rate entry was “greater than that of 1.0 percent ketoprofen without vitamin E”.

The values are drawn from patent US6017520A, “Penetration enhancement of topically applied therapeutic formulations” (Block Drug Company, Inc., priority 1997, dated 2000).
